Source: patent US9895340B2, “Fluorinated benzofuran derivatives” (SciFluor Life Sciences, Inc., priority 2012, dated 2018)
Read-outs that look alike come from different tables or passages of the source.

Legend:
Type in all cases: cell-based
[1] = molecular target: T1, hCav1.2/β2/α2δ channels (Homo sapiens, UniProt Q13936); experiment: hCav1.2 L-type calcium channel automated patch clamp; conditions: CHO cells, read-out: Cav1.2 ion channel inhibition
T1 construct: expressed in transfected cells; host or cells: CHO cells
T1 sequence (Q13936 whole entry): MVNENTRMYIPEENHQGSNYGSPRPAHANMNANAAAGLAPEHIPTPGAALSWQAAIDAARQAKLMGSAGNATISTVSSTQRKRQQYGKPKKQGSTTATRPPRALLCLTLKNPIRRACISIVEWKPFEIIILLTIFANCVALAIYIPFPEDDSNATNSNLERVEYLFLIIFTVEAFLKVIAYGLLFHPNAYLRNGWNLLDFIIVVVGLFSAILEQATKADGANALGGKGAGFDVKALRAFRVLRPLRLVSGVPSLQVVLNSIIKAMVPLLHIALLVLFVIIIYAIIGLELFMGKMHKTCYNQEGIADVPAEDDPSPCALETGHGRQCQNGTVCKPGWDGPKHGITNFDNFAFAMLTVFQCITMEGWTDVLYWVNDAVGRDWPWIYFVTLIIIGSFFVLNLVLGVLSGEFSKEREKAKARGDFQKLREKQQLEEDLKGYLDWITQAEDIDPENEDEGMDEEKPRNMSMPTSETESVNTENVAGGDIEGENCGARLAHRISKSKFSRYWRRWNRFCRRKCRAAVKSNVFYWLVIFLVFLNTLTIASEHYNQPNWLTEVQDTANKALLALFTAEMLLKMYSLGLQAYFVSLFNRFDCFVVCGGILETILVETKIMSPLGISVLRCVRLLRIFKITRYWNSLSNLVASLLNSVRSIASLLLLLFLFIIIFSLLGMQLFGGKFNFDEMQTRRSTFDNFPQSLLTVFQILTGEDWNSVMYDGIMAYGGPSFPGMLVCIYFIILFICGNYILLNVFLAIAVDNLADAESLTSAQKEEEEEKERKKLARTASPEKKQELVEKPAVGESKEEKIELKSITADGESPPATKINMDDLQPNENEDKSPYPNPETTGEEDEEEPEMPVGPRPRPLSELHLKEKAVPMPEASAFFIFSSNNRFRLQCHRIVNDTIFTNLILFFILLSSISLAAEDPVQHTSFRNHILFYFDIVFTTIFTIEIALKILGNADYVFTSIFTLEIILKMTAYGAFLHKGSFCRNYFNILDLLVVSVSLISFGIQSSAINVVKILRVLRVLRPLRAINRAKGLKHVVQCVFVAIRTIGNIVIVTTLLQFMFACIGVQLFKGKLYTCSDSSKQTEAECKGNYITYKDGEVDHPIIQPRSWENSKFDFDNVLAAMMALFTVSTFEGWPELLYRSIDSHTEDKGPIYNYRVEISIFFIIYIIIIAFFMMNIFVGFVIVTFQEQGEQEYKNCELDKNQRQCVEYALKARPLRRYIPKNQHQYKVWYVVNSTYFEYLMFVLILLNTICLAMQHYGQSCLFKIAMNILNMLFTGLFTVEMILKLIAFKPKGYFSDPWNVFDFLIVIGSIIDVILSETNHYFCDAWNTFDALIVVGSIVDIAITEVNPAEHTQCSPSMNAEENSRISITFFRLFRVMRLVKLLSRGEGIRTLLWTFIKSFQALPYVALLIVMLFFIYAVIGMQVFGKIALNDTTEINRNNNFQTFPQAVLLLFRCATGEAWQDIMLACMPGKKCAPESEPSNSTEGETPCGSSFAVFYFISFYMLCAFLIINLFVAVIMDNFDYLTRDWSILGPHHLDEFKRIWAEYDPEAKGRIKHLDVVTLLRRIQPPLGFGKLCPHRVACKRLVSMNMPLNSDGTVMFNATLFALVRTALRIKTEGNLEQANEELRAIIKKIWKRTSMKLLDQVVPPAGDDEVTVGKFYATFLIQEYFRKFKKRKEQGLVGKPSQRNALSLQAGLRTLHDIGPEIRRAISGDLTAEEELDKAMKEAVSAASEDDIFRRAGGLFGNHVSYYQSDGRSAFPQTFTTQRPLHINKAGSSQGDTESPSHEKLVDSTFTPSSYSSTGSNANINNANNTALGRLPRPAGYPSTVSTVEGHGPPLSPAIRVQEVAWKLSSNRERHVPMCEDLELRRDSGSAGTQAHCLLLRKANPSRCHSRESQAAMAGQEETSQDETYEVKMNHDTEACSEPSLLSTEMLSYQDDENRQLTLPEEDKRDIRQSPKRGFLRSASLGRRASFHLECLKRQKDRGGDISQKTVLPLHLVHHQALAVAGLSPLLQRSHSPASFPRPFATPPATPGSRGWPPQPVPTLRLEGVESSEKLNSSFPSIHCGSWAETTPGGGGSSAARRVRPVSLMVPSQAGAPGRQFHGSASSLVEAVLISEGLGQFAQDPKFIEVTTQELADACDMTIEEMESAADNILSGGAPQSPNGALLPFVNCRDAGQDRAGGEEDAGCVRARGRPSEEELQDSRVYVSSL
T1 sequence (Q08289 whole entry partner): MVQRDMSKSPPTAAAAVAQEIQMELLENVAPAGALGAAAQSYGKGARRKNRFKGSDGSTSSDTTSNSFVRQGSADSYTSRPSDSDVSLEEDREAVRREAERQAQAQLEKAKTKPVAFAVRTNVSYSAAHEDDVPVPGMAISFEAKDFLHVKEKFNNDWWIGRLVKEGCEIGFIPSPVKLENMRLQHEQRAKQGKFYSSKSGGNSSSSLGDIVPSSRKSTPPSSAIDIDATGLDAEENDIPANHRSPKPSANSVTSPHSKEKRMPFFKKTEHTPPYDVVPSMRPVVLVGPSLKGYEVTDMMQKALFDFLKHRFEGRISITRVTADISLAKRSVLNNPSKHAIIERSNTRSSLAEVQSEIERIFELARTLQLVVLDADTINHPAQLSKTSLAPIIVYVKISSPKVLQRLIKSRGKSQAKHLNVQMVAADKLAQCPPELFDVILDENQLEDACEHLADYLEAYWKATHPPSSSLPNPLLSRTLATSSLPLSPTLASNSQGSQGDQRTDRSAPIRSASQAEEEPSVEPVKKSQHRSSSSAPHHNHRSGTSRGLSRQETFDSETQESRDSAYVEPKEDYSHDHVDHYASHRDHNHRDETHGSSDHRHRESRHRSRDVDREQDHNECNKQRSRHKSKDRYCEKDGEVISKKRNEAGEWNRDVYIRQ
T1 sequence (P54289 25-956 partner limits assumed): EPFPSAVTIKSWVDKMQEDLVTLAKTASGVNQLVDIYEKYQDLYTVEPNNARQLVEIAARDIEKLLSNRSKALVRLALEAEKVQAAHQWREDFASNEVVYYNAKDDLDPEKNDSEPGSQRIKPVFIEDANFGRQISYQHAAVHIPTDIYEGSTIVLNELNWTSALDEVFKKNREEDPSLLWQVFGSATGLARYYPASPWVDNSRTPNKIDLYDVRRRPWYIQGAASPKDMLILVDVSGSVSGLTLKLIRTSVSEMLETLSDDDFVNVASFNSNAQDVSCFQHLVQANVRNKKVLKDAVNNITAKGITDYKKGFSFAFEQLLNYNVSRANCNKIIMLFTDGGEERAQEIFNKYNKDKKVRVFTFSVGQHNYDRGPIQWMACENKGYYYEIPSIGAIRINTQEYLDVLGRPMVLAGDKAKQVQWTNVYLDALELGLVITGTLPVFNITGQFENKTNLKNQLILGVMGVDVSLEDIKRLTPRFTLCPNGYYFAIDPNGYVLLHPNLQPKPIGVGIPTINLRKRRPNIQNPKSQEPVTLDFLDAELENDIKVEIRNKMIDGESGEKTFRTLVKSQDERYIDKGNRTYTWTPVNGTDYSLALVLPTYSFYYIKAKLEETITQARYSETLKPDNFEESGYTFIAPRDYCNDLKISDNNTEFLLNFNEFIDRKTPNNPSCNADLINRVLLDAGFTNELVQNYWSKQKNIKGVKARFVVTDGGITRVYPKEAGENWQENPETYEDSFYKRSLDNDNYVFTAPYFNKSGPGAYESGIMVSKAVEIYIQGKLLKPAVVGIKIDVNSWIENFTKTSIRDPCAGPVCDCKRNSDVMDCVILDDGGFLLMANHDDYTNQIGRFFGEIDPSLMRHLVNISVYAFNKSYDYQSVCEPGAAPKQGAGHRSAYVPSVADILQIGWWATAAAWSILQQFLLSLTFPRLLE
T1 sequence (P54289 957-1103 partner limits assumed): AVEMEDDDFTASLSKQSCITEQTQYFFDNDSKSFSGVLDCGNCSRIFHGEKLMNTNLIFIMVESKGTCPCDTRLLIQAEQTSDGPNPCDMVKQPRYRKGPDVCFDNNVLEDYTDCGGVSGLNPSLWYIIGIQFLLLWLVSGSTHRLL
Method: (§1) Compounds of the present invention were tested for their anti-arrhythmic activity in a series of in vitro cardiac ion channel assays using cloned human channels expressed in CHO cells or HEK293 cells: • 1. Cloned L-type calcium channels (hCav1.2, encoded by the human CACNA1C gene and coexpressed with the (32 subunit, encoded by the human CACNB2 gene and the α2δ1 subunit encoded by the human CACNA2D1 gene, in CHO cells), responsible for Ica,L, high threshold calcium current. • 2. Cloned hERG potassium channels (encoded by the KCNH2 gene and expressed in human embryonic kidney, HEK293, cells) responsible for IKr. • 3. Cloned hKir2.1 potassium channels (encoded by the human KCNJ2 gene and expressed in HEK293 cells), responsible for IKI, inwardly rectifying potassium current. • 4. Cloned hKvLQT1/hminK potassium channels (encoded by the human KCNQ1 and KCNE1 genes and coexpressed in CHO cells), responsible for IKs, slow delayed rectifier potassium current. • 5. Cloned hKv1.5 potassium channels (encoded by the human KCNA5 gene and expressed in CHO cells), responsible for IKur, ultra-rapid delayed rectifier potassium current. • 6. Cloned hNav1.5 sodium channels (SCN5A gene, expressed in CHO cells). • 7. Cloned hKir3.1/hKir3.4 potassium channels (expressed by the human KCNJ3 and KCNJ5 genes and co-expressed in HEK293 cells) responsible for IACh, inwardly rectifying potassium current.
(§2) One concentration of a compound of the present invention was applied for a […] interval via disposable polyethylene micropipette tips to naïve cells (n≧2, where n=the number cells/concentration). Each solution exchange, performed in quadruplicate, consisted of aspiration and replacement of 45 μL volume of the extracellular well of the Sealchip16. Duration of exposure to the test compound was three minutes. For the hKir3.1/hKir3.4 assay, two concentrations of a compound of the present invention were used and the duration of exposure was 3 minutes.
(§3) In preparation for an automated patch clamp procedure recording session, intracellular solution was loaded into the intracellular compartments of the Sealchip16 or Qplate planar electrode. Cell suspension was pipetted into the extracellular compartments of the Sealchip16 or Qplate planar electrode. After establishment of a whole-cell configuration, membrane currents were recorded using dual-channel patch clamp amplifiers in the PatchXpress® or Qpatch HT® system. Before digitization, the current records were low-pass filtered at one-fifth of the sampling frequency. […]
Onset and steady state block of hCav1.2/β2/α2δ channels were measured using a stimulus voltage pattern consisting of a depolarizing test pulse (duration, 200 ms; amplitude, 10 mV) at 10 s intervals from a −80 mV holding potential. Peak current was measured during the step to 10 mV. […]

[2] = molecular target: T2, hKvLQT1/hminK potassium channels (Homo sapiens, UniProt P51787); experiment: hKvLQT1/hminK potassium channel automated patch clamp; conditions: CHO cells, read-out: KvLQT ion channel inhibition
T2 construct: expressed in transfected cells; host or cells: CHO cells
Method: as §1, §2
In preparation for an automated patch clamp procedure recording session, intracellular solution was loaded into the intracellular compartments of the Sealchip16 or Qplate planar electrode. […] After establishment of a whole-cell configuration, membrane currents were recorded using dual-channel patch clamp amplifiers in the PatchXpress® or Qpatch HT® system. […]
Onset and steady state block of hKvLQT1/hminK current was measured using a pulse pattern with fixed amplitudes (depolarization: +40 mV for 2 s; repolarization: −40 mV for 0.5 s) repeated at 15 s intervals from a holding potential of −80 mV. Current amplitude was measured at the end of the step to +40 mV. […] Leakage current was measured after chromanol 293B addition and subtracted from the total membrane current record.

[3] = molecular target: T3, hKir2.1 potassium channels (Homo sapiens, UniProt P63252); experiment: hKir2.1 potassium channel automated patch clamp; conditions: HEK293 cells, read-out: Kir2.1 ion channel inhibition
T3 construct: expressed in transfected cells; host or cells: HEK293 cells
T3 sequence (P63252 1-427): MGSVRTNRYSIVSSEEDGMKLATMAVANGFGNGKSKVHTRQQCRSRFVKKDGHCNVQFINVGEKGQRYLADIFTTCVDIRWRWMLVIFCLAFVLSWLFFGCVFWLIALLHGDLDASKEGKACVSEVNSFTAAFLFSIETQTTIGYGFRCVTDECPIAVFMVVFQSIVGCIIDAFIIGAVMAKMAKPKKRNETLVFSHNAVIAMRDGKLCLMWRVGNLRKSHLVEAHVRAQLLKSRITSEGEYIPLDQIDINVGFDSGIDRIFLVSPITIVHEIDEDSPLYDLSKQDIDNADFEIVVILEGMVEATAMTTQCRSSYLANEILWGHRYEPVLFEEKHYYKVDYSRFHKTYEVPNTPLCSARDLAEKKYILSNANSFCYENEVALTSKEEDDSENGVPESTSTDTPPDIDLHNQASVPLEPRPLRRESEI
Method: as §1, §2
In preparation for an automated patch clamp procedure recording session, intracellular solution was loaded into the intracellular compartments of the Sealchip16 or Qplate planar electrode. Cell suspension was pipetted into the extracellular compartments of the Sealchip16 or Qplate planar electrode. After establishment of a whole-cell configuration, membrane currents were recorded using dual-channel patch clamp amplifiers in the PatchXpress® or Qpatch HT® system. […]
Onset and steady state block of hKir2.1 current was measured using a pulse pattern with fixed amplitudes (hyperpolarization: −110 mV amplitude, 300 ms duration) repeated at 10 s intervals from a holding potential of −70 mV. Current amplitude was measured at the end of the step to −110 mV.

[4] = molecular target: T4, hKir3.1/hKir3.4 potassium channels (Homo sapiens, UniProt P48544+P48549); experiment: hKir3.1/hKir3.4 potassium channel automated patch clamp; conditions: HEK293 cells; for inhibition at 1 µM: read-out: K(ach) @ 1 μM ion channel inhibition; for inhibition at 10 µM: read-out: K(ach) ion channel inhibition
T4 construct: expressed in transfected cells; host or cells: HEK293 cells
T4 sequence (P48549 1-501): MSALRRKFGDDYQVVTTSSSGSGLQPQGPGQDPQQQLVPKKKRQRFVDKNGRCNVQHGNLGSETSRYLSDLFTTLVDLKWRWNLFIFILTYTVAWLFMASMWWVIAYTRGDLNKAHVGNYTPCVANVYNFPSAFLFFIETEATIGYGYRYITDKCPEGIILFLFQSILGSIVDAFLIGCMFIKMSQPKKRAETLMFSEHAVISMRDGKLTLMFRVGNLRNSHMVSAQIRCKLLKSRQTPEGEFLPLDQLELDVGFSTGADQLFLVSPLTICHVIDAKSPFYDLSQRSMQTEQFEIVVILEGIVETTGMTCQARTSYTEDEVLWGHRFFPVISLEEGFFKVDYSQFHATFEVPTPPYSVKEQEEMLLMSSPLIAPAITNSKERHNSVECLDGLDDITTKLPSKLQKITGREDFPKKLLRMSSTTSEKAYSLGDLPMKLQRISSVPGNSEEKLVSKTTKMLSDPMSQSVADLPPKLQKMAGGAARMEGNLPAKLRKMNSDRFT
T4 sequence (P48544 1-419): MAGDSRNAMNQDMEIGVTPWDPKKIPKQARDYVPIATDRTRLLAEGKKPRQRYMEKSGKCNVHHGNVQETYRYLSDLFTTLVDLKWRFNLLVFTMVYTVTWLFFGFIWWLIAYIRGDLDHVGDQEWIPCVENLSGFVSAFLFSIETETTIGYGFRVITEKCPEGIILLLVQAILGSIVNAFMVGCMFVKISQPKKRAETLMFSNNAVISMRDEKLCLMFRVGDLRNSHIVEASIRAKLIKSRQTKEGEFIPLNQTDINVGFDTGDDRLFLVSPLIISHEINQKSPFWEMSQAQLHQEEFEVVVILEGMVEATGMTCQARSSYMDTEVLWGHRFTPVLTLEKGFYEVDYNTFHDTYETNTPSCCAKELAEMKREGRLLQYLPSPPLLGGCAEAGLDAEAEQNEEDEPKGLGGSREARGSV
Method: as §1, §2
(§4) In preparation for an automated patch clamp procedure recording session, intracellular solution was loaded into the intracellular compartments of the Sealchip16 or Qplate planar electrode. Cell suspension was pipetted into the extracellular compartments of the Sealchip16 or Qplate planar electrode. After establishment of a whole-cell configuration, membrane currents were recorded using dual-channel patch clamp amplifiers in the PatchXpress® or Qpatch HT® system. Before digitization, the current records were low-pass filtered at one-fifth of the sampling frequency.
(§5) Valid whole-call recordings met the following criteria: • 1. Membrane resistance (Rm)≧200 MΩ • 2. Leak current≦25% channel current. hCav1.2 Test Procedure
The in vitro effects of the compounds of the present invention were evaluated at room temperature using the PatchXpress (Model 7000A, Molecular Devices, Union City, Calif.), an automated parallel patch clamp system.

[5] = molecular target: T5, hKv1.5 potassium channels (Homo sapiens, UniProt P22460); experiment: hKv1.5 potassium channel automated patch clamp; conditions: CHO cells, read-out: Kv1.5 ion channel inhibition
T5 construct: expressed in transfected cells; host or cells: CHO cells
T5 sequence (P22460 whole entry): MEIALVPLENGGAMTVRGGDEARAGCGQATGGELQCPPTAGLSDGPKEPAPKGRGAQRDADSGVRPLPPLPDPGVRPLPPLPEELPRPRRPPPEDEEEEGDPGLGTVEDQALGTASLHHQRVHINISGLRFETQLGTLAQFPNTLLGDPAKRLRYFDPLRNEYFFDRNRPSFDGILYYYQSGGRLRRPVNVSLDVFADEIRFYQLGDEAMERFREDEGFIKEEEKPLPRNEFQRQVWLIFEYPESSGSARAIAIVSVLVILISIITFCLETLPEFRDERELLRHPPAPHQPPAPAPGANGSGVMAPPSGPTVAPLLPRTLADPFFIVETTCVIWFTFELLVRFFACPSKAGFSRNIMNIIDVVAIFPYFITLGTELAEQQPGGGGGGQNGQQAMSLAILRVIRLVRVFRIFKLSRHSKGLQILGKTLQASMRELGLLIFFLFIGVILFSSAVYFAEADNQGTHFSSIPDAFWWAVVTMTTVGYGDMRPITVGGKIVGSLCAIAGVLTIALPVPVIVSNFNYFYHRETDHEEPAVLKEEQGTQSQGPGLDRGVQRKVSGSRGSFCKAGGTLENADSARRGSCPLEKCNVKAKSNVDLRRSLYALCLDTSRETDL
Method: as §1, §2, §3
Onset and steady state block of hKv1.5 current was measured using a pulse pattern with fixed amplitudes (depolarization: +20 mV amplitude, 300 ms duration) repeated at 10 s intervals from a holding potential of −80 mV. Current amplitude was measured at the end of the step to +20 mV.

[6] = molecular target: T6, hNav1.5 sodium channels (Homo sapiens, UniProt Q14524); experiment: hNav1.5 sodium channel automated patch clamp; conditions: CHO cells
T6 construct: expressed in transfected cells; host or cells: CHO cells
Method: as §1, §2, §4, §5
Onset and steady-state block of hNav1.5 current was measured using double pulse pattern consisting of a series of two depolarizing test pulses to −15 mV. From a holding potential of −80 mV, an initial hyperpolarizing conditioning pre-pulse (−120 mV amplitude, 200 ms duration,) was followed immediately by the first depolarizing test pulse to −15 mV (200 ms duration). This was followed by a hyperpolarizing conditioning inter-pulse to −80 mV (200 ms duration) and then a second depolarizing test pulse to −15 mV for 20 ms. The pulse pattern was repeated at 10 s intervals and peak current amplitudes at both test pulses were measured.

[7] = molecular target: T7, hERG potassium channel (KCNH2, IKr) (Homo sapiens, UniProt Q12809); experiment: hERG potassium channel automated patch clamp; conditions: HEK293 cells expressing cloned hERG potassium channels, read-out: hERG ion channel inhibition
T7 construct: expressed in transfected cells; host or cells: HEK293 cells
Method: One concentration of a compound of the present invention was applied for a five-minute interval via disposable polyethylene micropipette tips to naïve cells (n≧2, where n=the number cells/concentration). Each solution exchange, performed in quadruplicate, consisted of aspiration and replacement of 45 μL volume of the extracellular well of the Sealchip16. Duration of exposure to the test compound was three minutes.
Onset and block of hERG current was measured using a stimulus voltage pattern consisting of a 500 ms prepulse to −40 mV (leakage subtraction), a 2-second activating pulse to +40 mV, followed by a 2-second test pulse to −40 mV. Leakage current was calculated from the current amplitude evoked by the prepulse and subtracted from the total membrane current record.

[8] = phasic block, read-out: Nav1.5 phasic ion channel inhibition
[9] = tonic block, read-out: Nav1.5 tonic ion channel inhibition

| SMILES | inhibition at 10 µM [1] [%] | inhibition at 10 µM [2] [%] | inhibition at 10 µM [3] [%] | inhibition at 1 µM [4] [%] | inhibition at 10 µM [4] [%] | inhibition at 10 µM [5] [%] | inhibition at 10 µM [6, 8] [%] | inhibition at 10 µM [6, 9] [%] | inhibition at 3 min, 10 µM [7] [%] |
| --- | --- | --- | --- | --- | --- | --- | --- | --- | --- |
| CCCCc1oc2ccccc2c1C(=O)c1cc(I)c(OCCN(CC)CC)c(I)c1 [Amiodarone, 2-n-butyl 3-[4-(2-diethylaminoethoxy) 3,5-diiodobenzoyl] benzofuran, reference compound] | 7.7 | -0.6 | 0.9 | 4.5 | 23 | 0.7 | 44 | 6.8 |  |
| CCCCc1oc2ccccc2c1C(=O)c1cc(C(F)(F)F)c(OCCN(CC)CC)c(C(F)(F)F)c1 [Compound 1, (2-butylbenzofuran-3-yl)(4-(2-(diethylamino)ethoxy)-3,5-bis(trifluoromethyl)phenyl)methanone] | 101 | 49 | 0.3 | 16 | 49 | 54 | 26 | 11.5 | 55 |
| CCCCc1oc2ccccc2c1C(=O)c1cc(I)c(OCCN(CC)CC)c(C(F)(F)F)c1 [Compound 2, (2-butylbenzofuran-3-yl)(4-(2-(diethylamino)ethoxy)-3-iodo-5-(trifluoromethyl)phenyl) methanone] | 81 | 2.5 | 2.7 | 1.4 | 4.6 | 21 | 44 | 23 | 75 |
| CCCCc1oc2ccccc2c1C(=O)c1ccc(OCCN(CC)CC)c(C(F)(F)F)c1 [Compound 3, (2-butylbenzofuran-3-yl)(4-(2-(diethylamino)ethoxy)-3-(trifluoromethyl)phenyl)methanone] | 2 | 8.4 | 9.7 | 2.1 | 11 | 25 | 86 | 48 | 74 |
